Laboratory results from article PMC7038975 (Nucleic Acids Research, 2019).

Target: dihydropyrimidinase (DHP) (Homo sapiens, UniProt Q14117)
Test: HPLC assay of […],6-dihydrouracil
Assay type: biochemical

Chain of dihydropyrimidinase (DHP) (Q14117 whole entry): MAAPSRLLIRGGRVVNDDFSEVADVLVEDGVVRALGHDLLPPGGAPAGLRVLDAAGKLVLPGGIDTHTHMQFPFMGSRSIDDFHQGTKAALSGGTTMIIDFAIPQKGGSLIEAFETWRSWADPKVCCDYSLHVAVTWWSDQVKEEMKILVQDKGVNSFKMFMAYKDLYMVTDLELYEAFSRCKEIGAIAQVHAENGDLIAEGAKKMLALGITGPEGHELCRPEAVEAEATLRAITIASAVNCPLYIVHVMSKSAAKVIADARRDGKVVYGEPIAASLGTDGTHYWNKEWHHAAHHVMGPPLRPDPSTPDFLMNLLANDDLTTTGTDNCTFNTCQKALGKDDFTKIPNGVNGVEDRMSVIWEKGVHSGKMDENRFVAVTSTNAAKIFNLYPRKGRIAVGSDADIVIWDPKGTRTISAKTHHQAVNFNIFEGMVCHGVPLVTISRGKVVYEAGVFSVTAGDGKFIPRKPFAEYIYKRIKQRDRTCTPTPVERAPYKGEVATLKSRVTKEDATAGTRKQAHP

## O=C1c2c(O)cc(O)cc2O[C@H](c2cc(O)c(O)c(O)c2)[C@H]1O [dihydromyricetin]
  IC50: ~6 µM
